In patent publication US20150322033A1, “ANTIBACTERIAL AGENT” (priority 2012, published 2015):
≈ marks a conversion by molar mass, not a printed value. Read-outs that look alike come from different tables or passages of the source.

Legend:
[1] = system: S. aureus FDA209P (ATCC 6538P); test: microbe, parasite or virus in culture; assay type: cell-based, Staphylococcus aureus; conditions: for MIC: Staphylococcus aureus
Experimental: (§1) S. aureus Mu50 (refer to Hiramatsu, K., Hanaki H., et al., J. Antimicrob. Chemother., 1997, 40(1), 135-6) or S. aureus FDA209P (ATCC 6538P) was cultured overnight at 37° C. in 4 mL of TBS (Tryptical Soy Broth, produced by Becton Dickinson) with shaking. After completion of the culture, the cells were suspended in fresh TBS to prepare a cell suspension showing an absorbance of 0.3 at 578 nm. Then, the cell suspension was diluted 500 times with CAMHB mentioned above.
(§2) CAMHB containing each test compound at each of the aforementioned concentrations was added to each well of a 96-well plate in a volume of 50 μL/well, the aforementioned cell suspension diluted 500 time was added to the well in a volume of 50 μL/well, and stationary culture was carried out overnight at 37° C.
(§3) MIC values (mg/L) of the flavones and quinolones against the strains were measured in the same manner as that of the measurement of MIC of Example 1, except that CAMHB containing each of the aforementioned flavones and quinolones prepared in Example 2 was used instead of CAMHB containing each of the test compounds.
(§4) MIC values of the flavones and quinolone for the strains were measured in the same manners as those of Example 1, except that S. aureus Mu50 NR-1 was also used as Staphylococcus aureus in addition to S. aureus FDA209P and S. aureus Mu50, cell suspensions of the strains were prepared.
(§5) In the same manner as that of Example 1, MIC values of M-246, M-21, J-Q21, and J-Q12.1 for Staphylococcus aureus were measured. M-246 and M-21 were obtained as commercial products, and as J-Q21 and J-Q12.1, those synthesized in Examples 6 and 7 were used.

[2] = system: S. aureus Mu50; test: microbe, parasite or virus in culture; assay type: cell-based, Staphylococcus aureus; conditions: for MIC: Staphylococcus aureus; for MIC (mg/L) Mu50: Example 1, Tables 1 to 10;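 for MIC ratio: ratio is FDA209P MIC divided by Mu50 MIC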
Experimental: as §1, §2, §3, §4, §5

[3] = Example 1, Tables 1 to 10, read-out: MIC (mg/L) FDA209P
[4] = MU50, read-out: MIC (mg/L) Mu50, Example 1, Tables 1 to 10

Compound | MIC [1, 3] [mg/L] | MIC [2, 4] [mg/L] | MIC (mg/L) FDA209P ([1]; Example 1, Tables 1 to 10) [mg/L] | MIC (mg/L) Mu50 [2] [mg/L] | further results
COc1c(O)cc2occ(-c3ccc(O)cc3)c(=O)c2c1O [compound 100] | 128 (≈ 426 µM) | 128 (≈ 426 µM) |  |  | 
O=c1c(O)c(-c2ccccc2)oc2ccccc12 [compound 12] |  |  | >128 | >128 | 
O=c1cc(-c2ccccc2)oc2ccccc12.O=c1cc(-c2ccccc2)oc2ccccc12 [Compound 25] |  |  |  |  | MIC (mg/L) S. aureus FDA209P ([1]; Example 2, Table 12): 128 mg/L; MIC ratio ([2]; (MIC value for S. aureus FDA209P)/(MIC value for S. aureus Mu50)): 2; MIC (mg/L) S. aureus Mu50 ([2]; Example 2, Table 12): 64 mg/L
CCOc1ccc(-c2coc3cc(OCC)cc(OCC)c3c2=O)cc1 [compound 75] | > 128 | > 128 |  |  | 
COc1ccc(-c2cc(=O)c3c(OC)c(OC)c(OC)c(OC)c3o2)cc1 [compound 30] | 128 (≈ 344 µM) | > 128 |  |  | 
COc1ccc(-c2coc3cc(OC4OC(CO)C(O)C(O)C4O)cc(O)c3c2=O)cc1 (stereo not shown) [compound 110] |  |  | 128 (≈ 287 µM) | 128 (≈ 287 µM) | 
O=c1c(O)c(-c2ccc(O)cc2O)oc2cc(O)cc(O)c12 [compound 2] |  |  | >128 | 128 (≈ 424 µM) | 
CCOC(=O)c1oc2cc(O)cc(O)c2c(=O)c1-c1ccc(OC)c(OC)c1 [compound 114] | > 128 | > 128 |  |  | 
CC(=O)Oc1cc(OC(C)=O)c2c(=O)c(-c3cc4c(cc3C)OCCO4)c(C)oc2c1 [compound 89] |  |  | 128 (≈ 302 µM) | 128 (≈ 302 µM) | 
O=c1c(-c2ccc(O)cc2)coc2cc(O)cc(O)c12 [compound 113] | 128 (≈ 474 µM) | 128 (≈ 474 µM) |  |  | 
COc1cc(O)c2c(=O)c(-c3ccc(OC4OC(CO)C(O)C(O)C4O)cc3)coc2c1 (stereo not shown) [compound 78] |  |  | >128 | >128 | 
O=C1CC(c2ccc(O)cc2)Oc2cc(O)cc(O)c21 (stereo not shown) [compound 128, 4′,5,7-Trihydroxyflavanone] | 128 (≈ 470 µM) | 128 (≈ 470 µM) |  |  | 
O=c1cc(-c2ccc(O)cc2)oc2cccc(O)c12 [compound 70] | 128 (≈ 503 µM) | 128 (≈ 503 µM) |  |  | 
O=C1CC(c2ccc(O)cc2)Oc2ccccc21 (stereo not shown) [compound 123, 4′-Hydroxyflavanone] | 128 (≈ 533 µM) | 128 (≈ 533 µM) |  |  | 
COc1cc(-c2coc3cc(O)c(OC)c(O)c3c2=O)cc(O)c1OC [compound 93] | 128 (≈ 355 µM) | 128 (≈ 355 µM) |  |  | 
O=c1c(-c2ccc(O)cc2O)coc2cc(O)cc(O)c12 [compound 101] | 128 (≈ 447 µM) | 128 (≈ 447 µM) |  |  | 
O=c1c(O)c(-c2ccc(O)c(O)c2)oc2c(O)c(O)cc(O)c12 [compound 37] | 128 (≈ 402 µM) | 62 (≈ 195 µM) |  | 64 (≈ 201 µM) | 
O=c1cc(-c2ccc(O)cc2)oc2cc(O)c(O)c(O)c12 [compound 41] | 128 (≈ 447 µM) | 128 (≈ 447 µM) |  |  | 
CC1(C)C=Cc2c(c3c(c4c2OCC(c2ccc(O)cc2)C4=O)OC(C)(C)C=C3)O1 (stereo not shown) [compound 105] | 128 (≈ 316 µM) | 128 (≈ 316 µM) |  |  | 
COc1cc(OC)c2c(=O)cc(-c3ccccc3)oc2c1C1=COC(C)(C)C1=O [compound 46] | 128 (≈ 326 µM) | > 128 |  |  | 
O=C1CC(c2cccc(O)c2)Oc2ccccc21 (stereo not shown) [compound 124, 3′-Hydroxyflavanone] | 128 (≈ 533 µM) | 128 (≈ 533 µM) |  |  | 
O=c1c(-c2ccc3c(c2)OCCO3)coc2cc(O)cc(O)c12 [compound 106] |  |  | 64 (≈ 205 µM) | 64 (≈ 205 µM) | 
O=c1cc(-c2ccc(O)c(O)c2)oc2c(C3OC(CO)C(O)C(O)C3O)c(O)cc(O)c12 (stereo not shown) [compound 60] |  |  | >128 | >128 | 

Compound | MIC [1, 3] [mg/L] | MIC [2, 4] [mg/L] | MIC (mg/L) FDA209P ([1]; Example 1, Tables 1 to 10) [mg/L] | MIC (mg/L) Mu50 [2] [mg/L] | further results
Cc1oc2cc(O)cc(O)c2c(=O)c1-c1ccc2c(c1)OCCCO2 [compound 83] | 128 (≈ 376 µM) | 128 (≈ 376 µM) |  |  | 
O=c1c(OC2OC(CO)C(O)C(O)C2O)c(-c2ccc(O)cc2)oc2cc(O)cc(O)c12 (stereo not shown) [compound 65] |  |  | >128 | >128 | 
COc1ccc(-c2oc3cc4c(c(OC)c3c(=O)c2OC)OCO4)cc1 [compound 32] |  |  | >128 | >128 | 
COc1cc(OC)c2c(=O)c(-c3ccc(OC)c(OC)c3)coc2c1 [compound 111] | > 128 | 128 (≈ 374 µM) |  |  | 
O=c1cc(-c2ccc(OC3OC(CO)C(O)C(O)C3O)cc2)oc2cc(O)cc(O)c12 (stereo not shown) [compound 63] |  |  | 128 (≈ 296 µM) | 128 (≈ 296 µM) | 
CCOC(=O)c1oc2cc(O)cc(O)c2c(=O)c1-c1ccc(OC)cc1 [compound 71] | 128 (≈ 359 µM) | 128 (≈ 359 µM) |  |  | 
COc1cc(OC)c2c(=O)cc(-c3ccccc3)oc2c1C [compound 21] |  |  | >128 | >128 | 
O.Oc1cc(O)c2c(c1)OC(c1ccc(O)c(O)c1)C(O)C2 (single isomer, unassigned; (+)) [compound 132, (+)-3,3′,4′,5,7-Flavanpentol Hydrate] | 128 | 128 |  |  | 
COc1ccc(-c2c(C(F)(F)F)oc3cc(O)cc(O)c3c2=O)cc1OC [compound 118] | 128 (≈ 335 µM) | 64 (≈ 167 µM) |  |  | 
O=c1c(-c2ccc3c(c2)OCCCO3)coc2cc(O)cc(O)c12 [compound 107] | 128 (≈ 392 µM) | 128 (≈ 392 µM) |  |  | 
COc1cc(O)c(CN2CCOCC2)c2oc(-c3ccccc3)cc(=O)c12 [compound 50] | > 128 | > 128 |  |  | 
COc1c(O)cc2oc(-c3ccc(O)cc3)c(OC)c(=O)c2c1O [compound 27] | > 128 | > 128 |  |  | 
CC(=O)Oc1cc(OC(C)=O)c2c(=O)c(-c3ccc4c(c3)OCCCO4)c(C)oc2c1 [compound 109] | 128 (≈ 302 µM) | 128 (≈ 302 µM) |  |  | 
COc1cc(O)c(CN2CCN(C)CC2)c2oc(-c3ccccc3)cc(=O)c12 [compound 51] |  |  | 128 (≈ 336 µM) | 128 (≈ 336 µM) | 
COc1ccc(-c2coc3cc(O)cc(O)c3c2=O)cc1 [compound 116] | 128 (≈ 450 µM) | 128 (≈ 450 µM) |  |  | 
CC1(C)C=Cc2c(cc3oc(-c4ccc(O)cc4)cc(=O)c3c2O)O1 [compound 44] | > 128 | > 128 |  |  | 
O=c1cc(-c2ccc(O)cc2)oc2c(C3CC3)c(O)ccc12 [J-Q21, 8-Cyclopropyl-7-hydroxy-2-(4-hydroxyphenyl)chromen-4-one] |  |  |  |  | MIC ([1]; Example 8, Table 17, read-out: MIC FDA209P): > 128 mg/L; MIC ([2]; MU50, read-out: MIC Mu50, Example 8, Table 17): 4 mg/L (≈ 13.6 µM)
COc1cc(O)c2c(=O)c(-c3ccc(O)cc3)coc2c1 [compound 112] | > 128 | > 128 |  |  | 
COc1ccc(-c2c(C)oc3cc(OC(C)=O)cc(OC(C)=O)c3c2=O)cc1 [compound 119] | > 128 | > 128 |  |  | 
CCOC(=O)c1oc2cc(OC)cc(O)c2c(=O)c1-c1ccc(OC)cc1 [compound 91] | > 128 | > 128 |  |  | 
COc1ccc(-c2coc3cc(O)cc(OC)c3c2=O)cc1OC [compound 108] | 128 (≈ 390 µM) | 128 (≈ 390 µM) |  |  | 
O=c1c(O)c(-c2ccc(O)cc2O)oc2cc(O)cc(O)c12 [compound 3] |  |  | >128 | >128 | 
O=c1c(O)c(-c2ccc(O)c(O)c2)oc2c(OC3OC(CO)C(O)C(O)C3O)c(O)cc(O)c12 (stereo not shown) [compound 61] |  |  | 128 (≈ 266 µM) | 128 (≈ 266 µM) | 
